Measured values from ChEMBL document CHEMBL4033724, “Novel sulfonamide-containing 2-indolinones that selectively inhibit tumor-associated alpha carbonic anhydrases” (Bioorg Med Chem, 2017).

Columns and labels:
Carbonic anhydrase 1 = Carbonic anhydrase 1 (Homo sapiens, UniProt P00915); assay: Inhibition of recombinant human cytosolic carbonic anhydrase 1 expressed in Escherichia coli pretreated for 15 mins prior to testing by stopped-flow assay
Carbonic anhydrase 2 = Carbonic anhydrase 2 (Homo sapiens, UniProt P00918); assay: Inhibition of recombinant human cytosolic carbonic anhydrase 2 expressed in Escherichia coli pretreated for 15 mins prior to testing by stopped-flow assay
Carbonic anhydrase 9 = Carbonic anhydrase 9 (Homo sapiens, UniProt Q16790); assay: Inhibition of recombinant human membrane bound carbonic anhydrase 9 expressed in Escherichia coli pretreated for 15 mins prior to testing by stopped-flow assay
Carbonic anhydrase 12 = Carbonic anhydrase 12 (Homo sapiens, UniProt O43570); assay: Inhibition of recombinant human […] expressed in Escherichia coli pretreated for 15 mins prior to testing by stopped-flow assay
Sequence of Carbonic anhydrase 12 (O43570 whole entry): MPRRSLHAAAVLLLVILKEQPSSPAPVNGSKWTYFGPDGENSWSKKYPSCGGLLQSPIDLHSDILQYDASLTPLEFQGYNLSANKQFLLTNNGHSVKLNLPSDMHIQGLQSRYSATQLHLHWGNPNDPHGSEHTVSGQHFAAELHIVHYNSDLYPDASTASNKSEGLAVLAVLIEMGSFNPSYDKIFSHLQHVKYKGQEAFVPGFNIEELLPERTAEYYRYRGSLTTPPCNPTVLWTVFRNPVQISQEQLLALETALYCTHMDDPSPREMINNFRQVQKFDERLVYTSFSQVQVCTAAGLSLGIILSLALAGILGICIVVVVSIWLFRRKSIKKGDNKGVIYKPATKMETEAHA

Sequence of Carbonic anhydrase 1 (P00915 whole entry): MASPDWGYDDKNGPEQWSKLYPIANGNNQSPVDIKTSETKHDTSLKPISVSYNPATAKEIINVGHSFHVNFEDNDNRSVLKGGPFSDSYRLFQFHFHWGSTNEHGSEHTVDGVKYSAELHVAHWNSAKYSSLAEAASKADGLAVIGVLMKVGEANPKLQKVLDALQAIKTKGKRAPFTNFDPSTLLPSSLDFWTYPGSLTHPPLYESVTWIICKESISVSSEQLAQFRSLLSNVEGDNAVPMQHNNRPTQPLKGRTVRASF

Row | Ki (Carbonic anhydrase 1) [nM] | Ki (Carbonic anhydrase 2) [nM] | Ki (Carbonic anhydrase 9) [nM] | Ki (Carbonic anhydrase 12) [nM] | SMILES
1 | 650 | 616 | 54.2 | 5.8 | NS(=O)(=O)c1ccc(NC(=S)N/N=C2\C(=O)Nc3ccc(Cl)cc32)cc1
2 | 698 | 687 | 58.1 | 6.3 | NS(=O)(=O)c1ccc(NC(=S)N/N=C2\C(=O)Nc3c(Br)cc(Br)cc32)cc1
3 | 624 | 399 | 16.8 | 5.9 | NS(=O)(=O)c1ccc(NC(=S)N/N=C2\C(=O)Nc3ccc(I)cc32)cc1
4 | 744 | 735 | 62.3 | 5.7 | Cc1ccc2c(c1)/C(=N/NC(=S)Nc1ccc(S(N)(=O)=O)cc1)C(=O)N2
5 | 76.1 | 426 | 13.3 | 87.3 | NS(=O)(=O)c1ccc(NC(=S)N/N=C2\C(=O)Nc3c(Cl)cccc32)cc1
6 | 901 | 897 | 34.4 | 1.2 | NS(=O)(=O)c1ccc(NC(=S)N/N=C2\C(=O)Nc3ccc(S(=O)(=O)O)cc32)cc1
7 | 558 | 551 | 38.8 | 4.5 | NS(=O)(=O)c1ccc(NC(=S)N/N=C2\C(=O)Nc3ccc(F)cc32)cc1
8 | 882 | 851 | 64.8 | 6.1 | NS(=O)(=O)c1ccc(NC(=S)N/N=C2\C(=O)Nc3ccc(Br)cc32)cc1
9 | 1190 | 936 | 66.3 | 6.9 | NS(=O)(=O)c1ccc(NC(=S)N/N=C2\C(=O)Nc3ccccc32)cc1
10 | 554 | 782 | 21.3 | 82.3 | NS(=O)(=O)c1ccc(NC(=S)N/N=C2\C(=O)Nc3c(Cl)cc(Cl)cc32)cc1
11 | 68.8 | 32 | 19.5 | 4.1 | NS(=O)(=O)c1ccc(NC(=S)N/N=C2\C(=O)Nc3ccc([N+](=O)[O-])cc32)cc1
12 | 481 | 420 | 45.7 | 6 | NS(=O)(=O)c1ccc(NC(=S)N/N=C2\C(=O)Nc3ccc(OC(F)(F)F)cc32)cc1
13 | 57.6 | 26.9 | 20.8 | 45.5 | NS(=O)(=O)c1ccc(NC(=S)N/N=C2\C(=O)Nc3c(F)cccc32)cc1
